# Measurements published in publication PMC12587545, “Noncytotoxic polymyxin derivatives enhance antibiotic action against multidrug-resistant Gram-negative bacteria” (Antimicrobial Agents and Chemotherapy, 2025).
# Several values for one entry are separate records, joined by “and”; a condition that tells them apart may be missing. Equal entries are not always repeated.
# How the values were obtained:
# P. aeruginosa = experiment: Checkerboard assay (antibiotic potentiation); type: cell-based, Pseudomonas aeruginosa; details: for MICantibiotic: antibiotic alone
# Experimental: (§1) The interaction between the compounds and the antibiotics was evaluated using the fractional inhibitory concentration (FIC) index. FIC indices of ≤0.5 is synergistic, 0.5 < × ≤ 4 is additive, whereas >4 is antagonistic ([34]).
# (§2) Synergy was measured by the FIC index, which is the summation of the individual FICs of the antibiotic and the compound. The FIC is calculated by dividing the MIC of one agent in the presence of another by the MIC of the agent alone. […] The FBS studies were conducted by following a previously published protocol ([29], [50]). The FBS was inactivated by heating at 56°C for 30 min with constant swirling.
# A. baumannii = experiment: Checkerboard assay (antibiotic potentiation); type: cell-based, Acinetobacter baumannii; design: key to FIC index: sum of FICs; ≤0.5 synergistic, 0.5–4 additive, >4 antagonistic; details: for MICantibiotic: antibiotic alone
# Experimental: (§3) The interaction between the compounds and the antibiotics was evaluated using the fractional inhibitory concentration (FIC) index. FIC indices of ≤0.5 is synergistic, 0.5 < × ≤ 4 is additive, whereas >4 is antagonistic ([34]). […] .
# (§4) The bacterial isolates were acquired from ATCC or the Canadian Ward Surveillance (CANWARD) study ([56]). CANWARD isolates were collected from infected patients admitted to participating medical centers across Canada.
# (§5) The antibiotic and compounds were serially diluted 2-fold in CAMHB along the x- and y-axis, respectively, on a 96-well plate that was subsequently incubated with equal volumes of bacterial inoculum overnight at 37°C. Wells containing only media were used as negative controls, and wells containing only bacteria were used as positive controls. Synergy was measured by the FIC index, which is the summation of the individual FICs of the antibiotic and the compound. The FIC is calculated by dividing the MIC of one agent in the presence of another by the MIC of the agent alone. Turbidity was confirmed with a Molecular Devices (United States) EMax Plus microplate reader at a wavelength of 590 nm. The FBS studies were conducted by following a previously published protocol ([29], [50]). The FBS was inactivated by heating at 56°C for 30 min with constant swirling.
# E. coli = experiment: Checkerboard assay (antibiotic potentiation); type: cell-based, Escherichia coli; details: for MICantibiotic + compound: antibiotic MIC with 8 µg/mL (5 µM) compound 1; for MICantibiotic: antibiotic alone; for Potentiation: of antibiotic by 8 µg/mL (5 µM) compound 1
# Experimental: as §1, §2
# K. pneumoniae = experiment: Checkerboard assay (antibiotic potentiation); type: cell-based, Klebsiella pneumoniae; details: for Interpretation: antibiotic + compound 1; for MICantibiotic + compound: antibiotic MIC with 8 µg/mL (5 µM) compound 1; for MICantibiotic: antibiotic alone; for Potentiation: of antibiotic by 8 µg/mL (5 µM) compound 1
# Experimental: as §1, §2
# E. cloacae = experiment: Checkerboard assay (antibiotic potentiation); type: cell-based, Enterobacter cloacae; details: E. cloacae 121887 (colistin-resistant)
# Experimental: as §3, §4, §5
# [1] = test system: MDR Gram-negative bacteria clinical isolates; experiment: Checkerboard assay, summary over strains; type: cell-based; details: of all 14 clinical isolates; number (%)
# Experimental: as §1, §5
# [2] = P. aeruginosa 262-101856, antibiotic + compound 1
# [3] = A. baumannii 110193, antibiotic + compound 1
# [4] = A. baumannii ATCC 17978, antibiotic + compound 1
# [5] = E. coli 94393 (colistin-resistant)
# [6] = E. coli 94474 (colistin-resistant)
# [7] = K. pneumoniae 113250 (colistin-resistant)
compound,measurement,setting,value
C[C@H]1COc2c(N3CCN(C)CC3)c(F)cc3c(=O)c(C(=O)O)cn1c23 [Levofloxacin],Interpretation,"P. aeruginosa; P. aeruginosa 259-96916, antibiotic + compound 1",Synergy (FIC indices of ≤0.5 is synergistic)
same,MICantibiotic + compound,"P. aeruginosa; P. aeruginosa 259-96916, antibiotic MIC with 8 µg/mL (5 µM) compound 1",16 µg/mL
same,MICantibiotic,P. aeruginosa; P. aeruginosa 259-96916,512 µg/mL
same,Potentiation,"P. aeruginosa; P. aeruginosa 259-96916, of antibiotic by 8 µg/mL (5 µM) compound 1",32 fold
same,FIC index,P. aeruginosa; [2],x < 0.125
same,Interpretation,P. aeruginosa; [2],Synergy (FIC indices of ≤0.5 is synergistic)
same,MICantibiotic + compound,"P. aeruginosa; P. aeruginosa 262-101856, antibiotic MIC with 8 µg/mL (5 µM) compound 1",4 µg/mL
same,MICantibiotic,P. aeruginosa; P. aeruginosa 262-101856,>64 µg/mL
same,Potentiation,"P. aeruginosa; P. aeruginosa 262-101856, of antibiotic by 8 µg/mL (5 µM) compound 1",≥32-fold
same,Interpretation,"P. aeruginosa; P. aeruginosa 264-105354, antibiotic + compound 1",Synergy (FIC indices of ≤0.5 is synergistic)
same,MICantibiotic + compound,"P. aeruginosa; P. aeruginosa 264-105354, antibiotic MIC with 8 µg/mL (5 µM) compound 1",4 µg/mL
same,MICantibiotic,P. aeruginosa; P. aeruginosa 264-105354,64 µg/mL
same,Potentiation,"P. aeruginosa; P. aeruginosa 264-105354, of antibiotic by 8 µg/mL (5 µM) compound 1",16 fold
same,Interpretation,"P. aeruginosa; P. aeruginosa 101243 (colistin-resistant), antibiotic + compound 1",Synergy (FIC indices of ≤0.5 is synergistic)
same,MICantibiotic + compound,"P. aeruginosa; P. aeruginosa 101243 (colistin-resistant), antibiotic MIC with 8 µg/mL (5 µM) compound 1",16 µg/mL
same,MICantibiotic,P. aeruginosa; P. aeruginosa 101243 (colistin-resistant),128 µg/mL
same,Potentiation,"P. aeruginosa; P. aeruginosa 101243 (colistin-resistant), of antibiotic by 8 µg/mL (5 µM) compound 1",8 fold
same,Interpretation,"P. aeruginosa; P. aeruginosa 114228 (colistin-resistant), antibiotic + compound 1",Additive (0.5 < × ≤ 4 is additive)
same,MICantibiotic + compound,"P. aeruginosa; P. aeruginosa 114228 (colistin-resistant), antibiotic MIC with 8 µg/mL (5 µM) compound 1",2 µg/mL
same,MICantibiotic,P. aeruginosa; P. aeruginosa 114228 (colistin-resistant),2 µg/mL
same,Potentiation,"P. aeruginosa; P. aeruginosa 114228 (colistin-resistant), of antibiotic by 8 µg/mL (5 µM) compound 1",1 fold
same,Interpretation,"P. aeruginosa; P. aeruginosa PAO1, antibiotic + compound 1",Synergy (FIC indices of ≤0.5 is synergistic)
same,Interpretation,"P. aeruginosa; P. aeruginosa PAO1, antibiotic + compound 3",Additive (0.5 < × ≤ 4 is additive)
same,MICantibiotic + compound,"P. aeruginosa; P. aeruginosa PAO1, antibiotic MIC with 8 µg/mL (5 µM) compound 1",0.125 µg/mL
same,MICantibiotic + compound,"P. aeruginosa; P. aeruginosa PAO1, antibiotic MIC with 8 µg/mL (5 µM) compound 3",1 µg/mL
same,MICantibiotic,P. aeruginosa; P. aeruginosa PAO1,1 µg/mL and 0.5 µg/mL
same,Potentiation,"P. aeruginosa; P. aeruginosa PAO1, of antibiotic by 8 µg/mL (5 µM) compound 1",4 fold
same,Potentiation,"P. aeruginosa; P. aeruginosa PAO1, of antibiotic by 8 µg/mL (5 µM) compound 3",1 fold
same,Interpretation,"A. baumannii; A. baumannii 92247 (colistin-resistant), antibiotic + compound 1",Additive (0.5 < × ≤ 4 is additive)
same,MICantibiotic + compound,"A. baumannii; A. baumannii 92247 (colistin-resistant), antibiotic MIC with 4 µg/mL (2 µM) compound 1",0.063 µg/mL
same,MICantibiotic,A. baumannii; A. baumannii 92247 (colistin-resistant),0.063 µg/mL
same,Potentiation,"A. baumannii; A. baumannii 92247 (colistin-resistant), of antibiotic by 4 µg/mL (2 µM) compound 1",1 fold
same,FIC index,A. baumannii; [3],1.125
same,Interpretation,A. baumannii; [3],Additive (0.5 < × ≤ 4 is additive)
same,MICantibiotic + compound,"A. baumannii; A. baumannii 110193, antibiotic MIC with 4 µg/mL (2 µM) compound 1",0.25 µg/mL
same,MICantibiotic,A. baumannii; A. baumannii 110193,0.25 µg/mL
same,Potentiation,"A. baumannii; A. baumannii 110193, of antibiotic by 4 µg/mL (2 µM) compound 1",1 fold
same,Interpretation,"A. baumannii; A. baumannii AB027, antibiotic + compound 1",Additive (0.5 < × ≤ 4 is additive)
same,MICantibiotic + compound,"A. baumannii; A. baumannii AB027, antibiotic MIC with 4 µg/mL (2 µM) compound 1",4 µg/mL
same,MICantibiotic,A. baumannii; A. baumannii AB027,8 µg/mL
same,Potentiation,"A. baumannii; A. baumannii AB027, of antibiotic by 4 µg/mL (2 µM) compound 1",2 fold
same,Interpretation,"A. baumannii; A. baumannii AB031, antibiotic + compound 1",Additive (0.5 < × ≤ 4 is additive)
same,MICantibiotic + compound,"A. baumannii; A. baumannii AB031, antibiotic MIC with 4 µg/mL (2 µM) compound 1",0.125 µg/mL
same,MICantibiotic,A. baumannii; A. baumannii AB031,0.25 µg/mL
same,Potentiation,"A. baumannii; A. baumannii AB031, of antibiotic by 4 µg/mL (2 µM) compound 1",2 fold
same,FIC index,A. baumannii; [4],0.650
same,Interpretation,A. baumannii; [4],Additive (0.5 < × ≤ 4 is additive)
same,Interpretation,"A. baumannii; A. baumannii ATCC 17978, antibiotic + compound 3",Additive (0.5 < × ≤ 4 is additive)
same,MICantibiotic + compound,"A. baumannii; A. baumannii ATCC 17978, antibiotic MIC with 8 µg/mL (5 µM) compound 3",0.125 µg/mL
same,MICantibiotic + compound,"A. baumannii; A. baumannii ATCC 17978, antibiotic MIC with ¼ MIC (≤5 µM) of compound 1",0.063 µg/mL
same,MICantibiotic,A. baumannii; A. baumannii ATCC 17978,0.125 µg/mL
same,Potentiation,"A. baumannii; A. baumannii ATCC 17978, of antibiotic by 8 µg/mL (5 µM) compound 3",1 fold
same,Potentiation,"A. baumannii; A. baumannii ATCC 17978, of antibiotic by ¼ MIC (≤5 µM) of compound 1",2 fold
same,FIC index,"E. coli; E. coli 94393 (colistin-resistant), antibiotic + compound 1",x < 0.563
same,MICantibiotic + compound,E. coli; [5],1 µg/mL
same,MICantibiotic,E. coli; [5],>2 µg/mL
same,Potentiation,E. coli; [5],≥4-fold
same,Interpretation,"E. coli; E. coli 94474 (colistin-resistant), antibiotic + compound 1",Additive (0.5 < × ≤ 4 is additive)
same,MICantibiotic + compound,E. coli; [6],8 µg/mL
same,MICantibiotic,E. coli; [6],16 µg/mL
same,Potentiation,E. coli; [6],2 fold
same,Interpretation,K. pneumoniae; [7],Additive (0.5 < × ≤ 4 is additive)
same,MICantibiotic + compound,K. pneumoniae; [7],0.063 µg/mL
same,MICantibiotic,K. pneumoniae; [7],0.063 µg/mL
same,Potentiation,K. pneumoniae; [7],1 fold
same,Interpretation,K. pneumoniae; K. pneumoniae 116381,Synergy (FIC indices of ≤0.5 is synergistic)
same,MICantibiotic + compound,K. pneumoniae; K. pneumoniae 116381,4 µg/mL
same,MICantibiotic,K. pneumoniae; K. pneumoniae 116381,256 µg/mL
same,Potentiation,K. pneumoniae; K. pneumoniae 116381,64 fold
same,Interpretation,E. cloacae; antibiotic + compound 1,Additive (0.5 < × ≤ 4 is additive)
same,MICantibiotic + compound,E. cloacae; antibiotic MIC with 8 µg/mL (5 µM) compound 1,16 µg/mL
same,MICantibiotic,E. cloacae; antibiotic alone,16 µg/mL
same,Potentiation,E. cloacae; of antibiotic by 8 µg/mL (5 µM) compound 1,1 fold
same,clinical isolates in which the antibiotic was synergized by compound 1,[1],5 (36%) strains
